# From patent US12640054B2, “Computational in silico model for placental barrier” (CFD Research Corporation, priority 2022, dated 2026)
# Counter-ions that a name gives are not always drawn.
# Tests used:
# trophoblast channel = assay: Cytotoxicity by adenylate kinase release (luminescence); format: cell-based; conditions: samples from the trophoblast channel; FIG. 11
# Method: Following exposure, FSS was injected into the maternal channel and permeability assayed. Permeability in the devices was 10-fold higher in trypan blue treated devices compared to controls. An additional assay was performed to determine cytotoxicity as it relates to the release of adenylate kinase. A positive control (100% death by lysis buffer) and a negative control (media only) were included for comparison. Samples were taken from the trophoblast channel and placed in a low volume, white walled […] plate for luminescence analysis using a plate reader. […] The increase in AK release in arbitrary luminescence units compares the toxic exposure of trypan blue to positive and negative controls.
# [1] = tested on: intervillous space - trophoblast barrier; assay: Morphological effects of toxic exposure in the in vitro placenta device; format: cell-based; conditions: injected into the maternal channel at 3 μL/min for 4 min, incubated at 37° C. for 15 min; FIG. 10
# Text: In some embodiments, the in vitro placental model device can be used for studying toxicity of test agents to the placenta. Certain compounds not only induce fetal toxicity upon crossing the placental barrier, but also disrupt the barrier itself. The microfluidic placental barrier model can be used to study response to toxic exposure of test agents. The impact to barrier function can be assessed through permeability comparisons and toxicity (e.g., cytotoxicity, etc.) can be assessed off chip by various methods (e.g., cell lysate luminescence assay, genomic analysis, etc.).
# For example, an in vitro placenta device was exposed to trypan blue by injection into the maternal channel at 3 μL/min for 4 min and then incubated at 37° C. for 15 min, similar to protocols in literature^7,8. […] White arrows show barrier degradation, and dark arrows show apoptosis following trypan blue exposure.
# [2] = tested on: in vitro placenta device (coculture of Bewo trophoblasts and HUVEC); assay: Maternal-placental size exclusion (permeability index) in the in vitro placenta device; format: in vitro ADME, human; conditions: injected into the maternal vascular channel at 0.1 μL/min for 1 hour; FIG. 9B
# Method: Again, devices can be placed in the incubator.
# In another example, one embodiment of the present invention was used to evaluate maternal-placental size exclusion, where a fluorescein sodium salt (FSS) solution was injected into the maternal vascular channel at 0.1 μL/min for 1 hour. […] PI was expected to decrease as a function of compound molecular weight.
compound,measurement,setting,value
Cc1cc(-c2ccc(/N=N/c3c(S(=O)(=O)O)cc4cc(S(=O)(=O)O)cc(N)c4c3O)c(C)c2)ccc1/N=N/c1c(S(=O)(=O)O)cc2cc(S(=O)(=O)O)cc(N)c2c1O [trypan blue],increase in adenylate kinase release,trophoblast channel,1.5 fold
same,morphological effects of exposure,[1],"barrier degradation (e.g., cell death and detachment) and apoptosis"
"O=C1OC2(c3ccc(O)cc3Oc3cc(O)ccc32)c2ccccc21 [FSS, fluorescein sodium salt]",increase in average PI compared to 4 kD TRITC-dextran,[2],~2 fold
